# ChEMBL document CHEMBL1201862, “PubChem BioAssay data set” (2004)
#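 Growth conditions: 96-well plates. Treatment: test compound, 48 hours, 5 concentrations. Analysis: linear interpolation between bracketing concentrations; unreached endpoints set to highest concentration. Here, GI50 denotes the concentration required for 50% inhibition of growth.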 Calls of active or inactive are those of the source. No stated cut-off is given here; in the data, active = GI50 up to about 1.1 µM and inactive = higher.
# Experiments:
# Assay in all cases: NCI anticancer screen, dose series, 48 h
# 786-0 = tested on: 786-0
# A498 = tested on: A498
# A549 = tested on: A549
# ACHN = tested on: ACHN
# CAKI-1 = tested on: CAKI-1
# CCRF-CEM = tested on: CCRF-CEM
# COLO 205 = tested on: COLO 205
# DLD-1 = tested on: DLD-1
# DMS-114 = tested on: DMS-114
# DMS-273 = tested on: DMS-273
# EKVX = tested on: EKVX
# HCC 2998 = tested on: HCC 2998
# HCT-15 = tested on: HCT-15
# HL-60 = tested on: HL-60
# HOP-18 = tested on: HOP-18
# HOP-62 = tested on: HOP-62
# HOP-92 = tested on: HOP-92
# HT-29 = tested on: HT-29
# IGROV-1 = tested on: IGROV-1
# K562 = tested on: K562
# KM-20L2 = tested on: KM-20L2
# KM12 = tested on: KM12
# LOX IMVI = tested on: LOX IMVI
# LXFL 529 = tested on: LXFL 529
# M14 = tested on: M14
# M19-MEL = tested on: M19-MEL
# MOLT-4 = tested on: MOLT-4
# Malme-3M = tested on: Malme-3M
# NCI-H226 = tested on: NCI-H226
# NCI-H23 = tested on: NCI-H23
# NCI-H460 = tested on: NCI-H460
# NCI-H522 = tested on: NCI-H522
# OVCAR-3 = tested on: OVCAR-3
# OVCAR-4 = tested on: OVCAR-4
# OVCAR-5 = tested on: OVCAR-5
# OVCAR-8 = tested on: OVCAR-8
# RPMI-8226 = tested on: RPMI-8226
# RXF 393 = tested on: RXF 393
# SF-268 = tested on: SF-268
# SF-295 = tested on: SF-295
# SF-539 = tested on: SF-539
# SK-MEL-28 = tested on: SK-MEL-28
# SK-MEL-2 = tested on: SK-MEL-2
# SK-MEL-5 = tested on: SK-MEL-5
# SK-OV-3 = tested on: SK-OV-3
# SN12C = tested on: SN12C
# SNB-19 = tested on: SNB-19
# SNB-75 = tested on: SNB-75
# SR = tested on: SR
# SW-620 = tested on: SW-620
# TK-10 = tested on: TK-10
# U-251 = tested on: U-251
# UACC-257 = tested on: UACC-257
# UACC-62 = tested on: UACC-62
# UO-31 = tested on: UO-31
# XF498 = tested on: XF498
# HCT-116 = tested on: HCT-116
# SNB-78 = tested on: SNB-78
compound,measurement,setting,value
CCCCOC(=O)C1C(c2ccc(Cl)cc2)NC(c2ccc(Cl)cc2)C(C(=O)OCCCC)S1(=O)=O (stereo unspecified),GI50,786-0,> 100 µM (inactive)
same,GI50,A498,> 100 µM (inactive)
same,GI50,A549,> 100 µM (inactive)
same,GI50,ACHN,> 100 µM (inactive)
same,GI50,CAKI-1,> 100 µM (inactive)
same,GI50,CCRF-CEM,> 100 µM (inactive)
same,GI50,COLO 205,> 100 µM (inactive)
same,GI50,DLD-1,> 100 µM (inactive)
same,GI50,DMS-114,> 100 µM (inactive)
same,GI50,DMS-273,> 100 µM (inactive)
same,GI50,EKVX,> 100 µM (inactive)
same,GI50,HCC 2998,> 100 µM (inactive)
same,GI50,HCT-15,> 100 µM
same,GI50,HL-60,8.83 µM (inactive)
same,GI50,HOP-18,> 100 µM (inactive)
same,GI50,HOP-62,> 100 µM (inactive)
same,GI50,HOP-92,> 100 µM (inactive)
same,GI50,HT-29,> 100 µM (inactive)
same,GI50,IGROV-1,> 100 µM (inactive)
same,GI50,K562,> 100 µM (inactive)
same,GI50,KM-20L2,> 100 µM (inactive)
same,GI50,KM12,> 100 µM (inactive)
same,GI50,LOX IMVI,> 100 µM (inactive)
same,GI50,LXFL 529,69.8 µM (inactive)
same,GI50,M14,> 100 µM (inactive)
same,GI50,M19-MEL,> 100 µM (inactive)
same,GI50,MOLT-4,> 100 µM (inactive)
same,GI50,Malme-3M,> 100 µM (inactive)
same,GI50,NCI-H226,> 100 µM (inactive)
same,GI50,NCI-H23,> 100 µM (inactive)
same,GI50,NCI-H460,> 100 µM (inactive)
same,GI50,NCI-H522,> 100 µM (inactive)
same,GI50,OVCAR-3,> 100 µM (inactive)
same,GI50,OVCAR-4,> 100 µM (inactive)
same,GI50,OVCAR-5,> 100 µM (inactive)
same,GI50,OVCAR-8,> 100 µM (inactive)
same,GI50,RPMI-8226,> 100 µM (inactive)
same,GI50,RXF 393,> 100 µM (inactive)
same,GI50,SF-268,> 100 µM (inactive)
same,GI50,SF-295,> 100 µM (inactive)
same,GI50,SF-539,> 100 µM (inactive)
same,GI50,SK-MEL-28,> 100 µM (inactive)
same,GI50,SK-MEL-2,> 100 µM (inactive)
same,GI50,SK-MEL-5,> 100 µM (inactive)
same,GI50,SK-OV-3,> 100 µM (inactive)
same,GI50,SN12C,> 100 µM (inactive)
same,GI50,SNB-19,> 100 µM (inactive)
same,GI50,SNB-75,> 100 µM (inactive)
same,GI50,SR,> 100 µM (inactive)
same,GI50,SW-620,> 100 µM (inactive)
same,GI50,TK-10,> 100 µM (inactive)
same,GI50,U-251,> 100 µM (inactive)
same,GI50,UACC-257,> 100 µM (inactive)
same,GI50,UACC-62,> 100 µM (inactive)
same,GI50,UO-31,> 100 µM (inactive)
same,GI50,XF498,> 100 µM (inactive)
O=C(Nc1cc(Cl)ccc1Cl)c1cc2cccc(Cl)c2oc1=O,GI50,786-0,> 100 µM (inactive)
same,GI50,A549,> 100 µM (inactive)
same,GI50,ACHN,> 100 µM (inactive)
same,GI50,CCRF-CEM,> 100 µM (inactive)
same,GI50,COLO 205,> 100 µM (inactive)
same,GI50,DLD-1,> 100 µM (inactive)
same,GI50,DMS-114,> 100 µM (inactive)
same,GI50,DMS-273,> 100 µM (inactive)
same,GI50,EKVX,> 100 µM (inactive)
same,GI50,HCT-116,> 100 µM (inactive)
same,GI50,HCT-15,> 100 µM
same,GI50,HL-60,> 100 µM (inactive)
same,GI50,HOP-18,40.2 µM (inactive)
same,GI50,HOP-62,> 100 µM (inactive)
same,GI50,HT-29,> 100 µM (inactive)
same,GI50,IGROV-1,> 100 µM (inactive)
same,GI50,K562,> 100 µM (inactive)
same,GI50,KM-20L2,> 100 µM (inactive)
same,GI50,KM12,> 100 µM (inactive)
same,GI50,LOX IMVI,> 100 µM (inactive)
same,GI50,M14,> 100 µM (inactive)
same,GI50,M19-MEL,> 100 µM (inactive)
same,GI50,MOLT-4,> 100 µM (inactive)
same,GI50,Malme-3M,> 100 µM (inactive)
same,GI50,NCI-H23,> 100 µM (inactive)
same,GI50,NCI-H460,> 100 µM (inactive)
same,GI50,NCI-H522,> 100 µM (inactive)
same,GI50,OVCAR-3,> 100 µM (inactive)
same,GI50,OVCAR-8,47.1 µM (inactive)
same,GI50,RPMI-8226,> 100 µM (inactive)
same,GI50,RXF 393,> 100 µM (inactive)
same,GI50,SF-295,> 100 µM (inactive)
same,GI50,SF-539,> 100 µM (inactive)
same,GI50,SK-MEL-28,> 100 µM (inactive)
same,GI50,SK-MEL-5,> 100 µM (inactive)
same,GI50,SK-OV-3,> 100 µM (inactive)
same,GI50,SN12C,> 100 µM (inactive)
same,GI50,SNB-75,37.1 µM (inactive)
same,GI50,SW-620,> 100 µM (inactive)
same,GI50,TK-10,> 100 µM (inactive)
same,GI50,U-251,> 100 µM (inactive)
same,GI50,UACC-257,61.2 µM (inactive)
same,GI50,UACC-62,> 100 µM (inactive)
same,GI50,XF498,24 µM (inactive)
CC1=Nc2ccccc2S(=O)(=O)N1,GI50,786-0,> 100 µM (inactive)
same,GI50,A498,> 100 µM (inactive)
same,GI50,A549,> 100 µM (inactive)
same,GI50,ACHN,> 100 µM (inactive)
same,GI50,CAKI-1,> 100 µM (inactive)
same,GI50,CCRF-CEM,> 100 µM (inactive)
same,GI50,COLO 205,> 100 µM (inactive)
same,GI50,DLD-1,> 100 µM (inactive)
same,GI50,DMS-114,> 100 µM (inactive)
same,GI50,DMS-273,> 100 µM (inactive)
same,GI50,EKVX,> 100 µM (inactive)
same,GI50,HCC 2998,> 100 µM (inactive)
same,GI50,HCT-116,> 100 µM (inactive)
same,GI50,HCT-15,> 100 µM
same,GI50,HL-60,> 100 µM (inactive)
same,GI50,HOP-18,> 100 µM (inactive)
same,GI50,HOP-62,> 100 µM (inactive)
same,GI50,HOP-92,> 100 µM (inactive)
same,GI50,HT-29,> 100 µM (inactive)
same,GI50,IGROV-1,> 100 µM (inactive)
same,GI50,K562,> 100 µM (inactive)
same,GI50,KM-20L2,> 100 µM (inactive)
same,GI50,KM12,> 100 µM (inactive)
same,GI50,LOX IMVI,> 100 µM (inactive)
same,GI50,LXFL 529,> 100 µM (inactive)
same,GI50,M14,> 100 µM (inactive)
same,GI50,M19-MEL,> 100 µM (inactive)
same,GI50,MOLT-4,> 100 µM (inactive)
same,GI50,Malme-3M,> 100 µM (inactive)
same,GI50,NCI-H226,> 100 µM (inactive)
same,GI50,NCI-H23,> 100 µM (inactive)
same,GI50,NCI-H460,> 100 µM (inactive)
same,GI50,NCI-H522,> 100 µM (inactive)
same,GI50,OVCAR-3,> 100 µM (inactive)
same,GI50,OVCAR-4,> 100 µM (inactive)
same,GI50,OVCAR-5,> 100 µM (inactive)
same,GI50,OVCAR-8,> 100 µM (inactive)
same,GI50,RXF 393,> 100 µM (inactive)
same,GI50,SF-268,> 100 µM (inactive)
same,GI50,SF-295,> 100 µM (inactive)
same,GI50,SF-539,> 100 µM (inactive)
same,GI50,SK-MEL-28,> 100 µM (inactive)
same,GI50,SK-MEL-2,> 100 µM (inactive)
same,GI50,SK-MEL-5,> 100 µM (inactive)
same,GI50,SK-OV-3,> 100 µM (inactive)
same,GI50,SN12C,> 100 µM (inactive)
same,GI50,SNB-19,> 100 µM (inactive)
same,GI50,SNB-75,> 100 µM (inactive)
same,GI50,SNB-78,> 100 µM (inactive)
same,GI50,SR,> 100 µM (inactive)
same,GI50,SW-620,> 100 µM (inactive)
same,GI50,TK-10,> 100 µM (inactive)
same,GI50,U-251,> 100 µM (inactive)
same,GI50,UACC-257,> 100 µM (inactive)
same,GI50,UACC-62,> 100 µM (inactive)
same,GI50,UO-31,> 100 µM (inactive)
